Data from a polymer gas permeability compilation.

With *C(=C(*)c1ccc2c(c1)C(C)(C)c1cc(Br)ccc1-2)c1ccccc1 (repeat unit) as the compound, how does the CH4 permeability read?
Its CH4 permeability is 3000 Barrer.

What about the CO2 permeability of the same compound?
The CO2 permeability was 8000 Barrer.

And the H2 permeability?
The H2 permeability was 3700 Barrer.

And the N2 permeability?
Its N2 permeability is 1100 Barrer.

What about the O2 permeability of the same compound?
The O2 permeability was 2000 Barrer.

What does the source list for *c1ccc(Oc2ccc3ccccc3c2-c2c(Oc3ccc(N4C(=O)c5ccc(C(c6ccc7c(c6)C(=O)N(*)C7=O)(C(F)(F)F)C(F)(F)F)cc5C4=O)cc3)ccc3ccccc23)cc1 (repeat unit)?
CH4 permeability: 0.22 Barrer; CO2 permeability: 15 Barrer; H2 permeability: 21.1 Barrer; N2 permeability: 0.4 Barrer; O2 permeability: 2.56 Barrer

For *c1ccc2c(-c3c(O)ccc4cc(N5C(=O)c6ccc(C(=O)c7ccc8c(c7)C(=O)N(*)C8=O)cc6C5=O)ccc34)c(O)ccc2c1 (repeat unit), which CH4 permeability is on record?
The CH4 permeability was 0.06 Barrer.

What about the CO2 permeability of the same compound?
Its CO2 permeability is 3.21 Barrer.

And the H2 permeability?
The H2 permeability was 4.52 Barrer.

What about the N2 permeability of the same compound?
Its N2 permeability is 0.11 Barrer.

What about the O2 permeability of the same compound?
Its O2 permeability is 0.76 Barrer.

Which CH4 permeability does the source give for *Oc1cc2c(cc1O*)C1(CC2(C)C)CC(C)(C)c2cc3c(cc21)Oc1cc2nc4cc5c(cc4nc2cc1O3)C(C)(C)CC51CC(C)(C)c2cc3nc4cc(*)c(*)cc4nc3cc21 (repeat unit) here?
Its CH4 permeability is 62 Barrer.

And the CO2 permeability?
The CO2 permeability was 1100 Barrer.

And the H2 permeability?
Its H2 permeability is 860 Barrer.

And the N2 permeability?
Its N2 permeability is 42 Barrer.

What about the O2 permeability of the same compound?
The O2 permeability was 190 Barrer.

What does the source list for *Oc1cc(C)c(C2(c3cc(C(C)C)c(Oc4ccc(S(=O)(=O)c5ccc(*)cc5)cc4)cc3C)OC(=O)c3ccccc32)cc1C(C)C (repeat unit)?
CH4 permeability: 0.928 Barrer; CO2 permeability: 19.4 Barrer; H2 permeability: 30.6 Barrer; N2 permeability: 0.699 Barrer; O2 permeability: 4.85 Barrer

With *Oc1ccc(C(=O)c2ccc(-c3ccc(C(=O)c4ccc(Oc5ccc(C(C)(C)c6ccc(*)cc6)cc5)cc4)cc3)cc2)cc1 (repeat unit) as the compound, how does the CH4 permeability read?
Its CH4 permeability is 0.14 Barrer.

What about the CO2 permeability of the same compound?
The CO2 permeability was 3.3 Barrer.

And the H2 permeability?
The H2 permeability was 8.9 Barrer.

And the N2 permeability?
The N2 permeability was 0.13 Barrer.

And the O2 permeability?
Its O2 permeability is 0.75 Barrer.

Which CH4 permeability does the source give for *C(C)=C(*)C(C)C (repeat unit) here?
The CH4 permeability was 2690 Barrer.

And the CO2 permeability?
Its CO2 permeability is 10700 Barrer.

And the H2 permeability?
The H2 permeability was 5720 Barrer.

What about the N2 permeability of the same compound?
Its N2 permeability is 1250 Barrer.

What about the O2 permeability of the same compound?
The O2 permeability was 2700 Barrer.

With *c1cc(C)c(C)c(N2C(=O)c3ccc(Oc4cc(C)c(Oc5ccc6c(c5)C(=O)N(*)C6=O)c(C)c4C)cc3C2=O)c1C (repeat unit) as the compound, how does the CH4 permeability read?
The CH4 permeability was 4 Barrer.

And the CO2 permeability?
The CO2 permeability was 110 Barrer.

What about the H2 permeability of the same compound?
Its H2 permeability is 130 Barrer.

And the N2 permeability?
The N2 permeability was 3.8 Barrer.

And the O2 permeability?
Its O2 permeability is 18 Barrer.

With *c1ccc(Oc2ccc(C(c3ccc(Oc4ccc(-n5c(=O)c6cc7c(=O)n(*)c(=O)c7cc6c5=O)cc4)cc3)(C(F)(F)F)C(F)(F)F)cc2)cc1 (repeat unit) as the compound, how does the CH4 permeability read?
Its CH4 permeability is 0.499 Barrer.

And the CO2 permeability?
The CO2 permeability was 14.7 Barrer.

And the H2 permeability?
The H2 permeability was 29.1 Barrer.

And the N2 permeability?
Its N2 permeability is 0.8 Barrer.

What about the O2 permeability of the same compound?
Its O2 permeability is 3.94 Barrer.

Which CH4 permeability does the source give for *c1cc(C(c2ccc(C)c(-n3c(=O)c4cc5oc6cc7c(cc6oc5cc4c3=O)C3(CC(C)(C)c4cc5oc6cc8c(=O)n(*)c(=O)c8cc6oc5cc43)CC7(C)C)c2)(C(F)(F)F)C(F)(F)F)ccc1C (repeat unit) here?
The CH4 permeability was 9 Barrer.

And the CO2 permeability?
Its CO2 permeability is 210 Barrer.

And the H2 permeability?
Its H2 permeability is 220 Barrer.

And the N2 permeability?
Its N2 permeability is 9 Barrer.

And the O2 permeability?
The O2 permeability was 39 Barrer.

Which results are given for *C(=C(*)c1ccc2c(c1)C(C)(C)C(C)(C)C2(C)C)c1ccccc1 (repeat unit)?
CH4 permeability: 24700 Barrer; CO2 permeability: 35800 Barrer; H2 permeability: 23600 Barrer; N2 permeability: 10200 Barrer; O2 permeability: 12700 Barrer

Which CH4 permeability does the source give for *c1ccc(*)n1C (repeat unit) here?
Its CH4 permeability is 0.22 Barrer.

And the CO2 permeability?
The CO2 permeability was 6.9 Barrer.

And the N2 permeability?
Its N2 permeability is 0.33 Barrer.

And the O2 permeability?
Its O2 permeability is 2.04 Barrer.

Which CH4 permeability does the source give for *Oc1ccc(-c2c(-c3ccc(Br)cc3)c(-c3ccc(Br)cc3)c(-c3ccc4c(c3)Oc3c(C#N)c(*)c(*)c(C#N)c3O4)c(-c3ccc(Br)cc3)c2-c2ccc(Br)cc2)cc1O* (repeat unit) here?
The CH4 permeability was 102 Barrer.

What about the CO2 permeability of the same compound?
The CO2 permeability was 1430 Barrer.

What about the H2 permeability of the same compound?
Its H2 permeability is 694 Barrer.

And the N2 permeability?
The N2 permeability was 54 Barrer.

And the O2 permeability?
Its O2 permeability is 203 Barrer.

Which CH4 permeability does the source give for *c1c(C)c2c(c(N3C(=O)c4ccc(-c5ccc6c(c5)C(=O)N(*)C6=O)cc4C3=O)c1C)C(C)(C)CC2 (repeat unit) here?
Its CH4 permeability is 23.9 Barrer.

What about the CO2 permeability of the same compound?
The CO2 permeability was 329 Barrer.

And the N2 permeability?
Its N2 permeability is 22 Barrer.

And the O2 permeability?
The O2 permeability was 83.4 Barrer.

With *Oc1cc2c(cc1O*)C1(c3cc(C)c(C)cc3-2)c2cc(C)c(C)cc2-c2cc3c(cc21)Oc1c(C#N)c(*)c(*)c(C#N)c1O3 (repeat unit) as the compound, how does the CH4 permeability read?
The CH4 permeability was 1100 Barrer.

And the CO2 permeability?
The CO2 permeability was 13100 Barrer.

What about the H2 permeability of the same compound?
Its H2 permeability is 6700 Barrer.

And the N2 permeability?
Its N2 permeability is 658 Barrer.

And the O2 permeability?
The O2 permeability was 2360 Barrer.

Which CH4 permeability does the source give for *Oc1ccc(S(=O)(=O)c2ccc(Oc3ccc(C4(c5ccc(*)cc5)c5ccccc5-c5ccccc54)cc3)cc2)cc1 (repeat unit) here?
The CH4 permeability was 0.531 Barrer.

And the CO2 permeability?
Its CO2 permeability is 13.8 Barrer.

And the N2 permeability?
Its N2 permeability is 0.484 Barrer.

And the O2 permeability?
The O2 permeability was 2.76 Barrer.

What does the source list for *C(=C(*)c1ccc2c(c1)C(C)(C)CC2(C)C)c1cccc(F)c1 (repeat unit)?
CH4 permeability: 27800 Barrer; CO2 permeability: 35200 Barrer; H2 permeability: 27000 Barrer; N2 permeability: 12000 Barrer; O2 permeability: 14300 Barrer

With *C(C(=O)OC(C)C)C(*)C(=O)OC1CCCCC1 (repeat unit) as the compound, how does the H2 permeability read?
The H2 permeability was 41 Barrer.

What about the N2 permeability of the same compound?
The N2 permeability was 3 Barrer.

And the O2 permeability?
Its O2 permeability is 8 Barrer.

With *C(=C(*)c1ccc2c(c1)C(C)(C)c1ccccc1-2)c1ccccc1 (repeat unit) as the compound, how does the CH4 permeability read?
Its CH4 permeability is 9100 Barrer.

What about the CO2 permeability of the same compound?
The CO2 permeability was 17000 Barrer.

What about the H2 permeability of the same compound?
Its H2 permeability is 8100 Barrer.

And the N2 permeability?
Its N2 permeability is 3300 Barrer.

What about the O2 permeability of the same compound?
The O2 permeability was 4800 Barrer.
